Patent publication US20240190824A1, “INHIBITORS OF TREK (TWIK RELATED K+ CHANNELS) CHANNEL FUNCTION” (ONO PHARMACEUTICAL CO., LTD., priority 2019, published 2024)

Molecular target: human TREK-1 (Homo sapiens (Human), UniProt O95069)
Experiment: TREK-1 Thallium (Tl+) flux assay
Type: cell-based
Details: CHO-K1 cells stably expressing human TREK-1

human TREK-1, sequence (O95069 whole entry): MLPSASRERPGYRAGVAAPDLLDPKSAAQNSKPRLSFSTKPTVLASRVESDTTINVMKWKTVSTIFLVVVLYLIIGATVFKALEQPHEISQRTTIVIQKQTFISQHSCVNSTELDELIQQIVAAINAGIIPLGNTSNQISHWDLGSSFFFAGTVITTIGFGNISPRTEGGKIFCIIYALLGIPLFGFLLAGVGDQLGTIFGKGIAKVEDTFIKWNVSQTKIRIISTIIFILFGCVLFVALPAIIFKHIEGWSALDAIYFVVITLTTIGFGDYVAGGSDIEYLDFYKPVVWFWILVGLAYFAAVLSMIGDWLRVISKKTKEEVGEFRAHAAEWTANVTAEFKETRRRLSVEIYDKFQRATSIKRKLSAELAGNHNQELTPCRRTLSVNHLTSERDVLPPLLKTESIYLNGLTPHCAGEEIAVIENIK

| Structure (SMILES) | IC50 [nM] |
| --- | --- |
| Cc1cc(C#Cc2ccccc2)cnc1NC(=O)c1cc(C(=O)N2CC(F)(F)C2)ccc1Cl [Compound 16, 2-chloro-5-(3,3-difluoroazetidine-1-carbonyl)-N-[3-methyl-5-(2-phenylethynyl)-2-pyridyl]benzamide] | 320 |
| Cc1ccc(NC(=O)OC(C)(C)C)cc1C(=O)Nc1ncc(C#Cc2ccccc2)cc1C [Compound 46, tert-butyl N-[4-methyl-3-[[3-methyl-5-(2-phenylethynyl)-2-pyridyl]carbamoyl]phenyl]carbamate] | 870 |
| Cc1cc(C#Cc2ccccc2)cnc1NC(=O)c1cc(-c2cn(C)nc2C)ccc1Cl [Compound 74, 2-chloro-5-(1,3-dimethylpyrazol-4-yl)-N-[3-methyl-5-(2-phenylethynyl)-2-pyridyl]benzamide] | 410 |
| Cc1cc(C#Cc2ccccc2)cnc1NC(=O)c1cc(C(=O)N2CCCC2C)ccc1Cl (centres unmarked) [Compound 69, 2-chloro-N-[3-methyl-5-(2-phenylethynyl)-2-pyridyl]-5-(2-methylpyrrolidine-1-carbonyl)benzamide] | 230 |
| CC(C)(C)OC(=O)Nc1ccc(Cl)c(C(=O)Nc2ncc(-c3cnn(-c4ccccc4)c3)cc2F)c1 [Compound 97, tert-butyl N-[4-chloro-3-[[3-fluoro-5-(1-phenylpyrazol-4-yl)-2-pyridyl]carbamoyl]phenyl]carbamate] | 290 |
| Cc1cc(-c2ccc(-c3ccccc3)s2)cnc1NC(=O)c1cc(NC(=O)OC(C)(C)C)ccc1Cl [Compound 99, tert-butyl N-[4-chloro-3-[[3-methyl-5-(5-phenyl-2-thienyl)-2-pyridyl]carbamoyl]phenyl]carbamate] | 1830 |
| Cc1cc(C#Cc2ccccc2)cnc1NC(=O)c1cc(C(=O)N2CC(O)C2)ccc1Cl [Compound 71, 2-chloro-5-(3-hydroxyazetidine-1-carbonyl)-N-[3-methyl-5-(2-phenylethynyl)-2-pyridyl]benzamide] | 300 |
| O=C(Nc1ncc(C#Cc2ccccc2)cc1F)c1cc(OC[C@H]2COCCO2)ccc1Cl [Compound 80, 2-chloro-5-[[(2R)-1,4-dioxan-2-yl]methoxy]-N-[3-fluoro-5-(2-phenylethynyl)-2-pyridyl]benzamide] | 60 |
| Cc1cc(C#Cc2ccccc2F)cnc1NC(=O)c1cc(NC(=O)OC(C)(C)C)ccc1Cl [Compound 42, tert-butyl N-[4-chloro-3-[[5-[2-(2-fluorophenyl)ethynyl]-3-methyl-2-pyridyl]carbamoyl]phenyl]carbamate] | 540 |
| Cc1cc(C#Cc2ccccc2)cnc1N1Cc2ccc(OCC3COCCO3)cc2C1=O (centres unmarked) [Compound 81, 6-(1,4-dioxan-2-ylmethoxy)-2-[3-methyl-5-(2-phenylethynyl)-2-pyridyl]isoindolin-1-one] | 360 |
| Cc1nc(C)c(-c2ccc(Cl)c(C(=O)Nc3ncc(C#Cc4ccccc4)cc3C)c2)s1 [Compound 70, 2-chloro-5-(2,4-dimethylthiazol-5-yl)-N-[3-methyl-5-(2-phenylethynyl)-2-pyridyl]benzamide] | 260 |
